Results as given in patent US5874432A, “Saccharin derivatives useful as proteolytic enzyme inhibitors and compositions and method of use thereof” (priority 1997, dated 1999).
pKi: −log10 of the molar value. Like-named read-outs stand apart in the source and are kept apart here.

Legend:
human leukocyte elastase = biological target: T1, human leukocyte elastase (Homo sapiens, UniProt P08246); assay: elastase inhibition using human leukocyte elastase (kon and Ki*); type: biochemical; conditions: for pKi: Ki* = koff/kon; for kon: rate of inactivation of enzyme, value is 10^-3 × kon, read-out: Elastase 10^-3 × kon
T1 sequence (P08246 30-267): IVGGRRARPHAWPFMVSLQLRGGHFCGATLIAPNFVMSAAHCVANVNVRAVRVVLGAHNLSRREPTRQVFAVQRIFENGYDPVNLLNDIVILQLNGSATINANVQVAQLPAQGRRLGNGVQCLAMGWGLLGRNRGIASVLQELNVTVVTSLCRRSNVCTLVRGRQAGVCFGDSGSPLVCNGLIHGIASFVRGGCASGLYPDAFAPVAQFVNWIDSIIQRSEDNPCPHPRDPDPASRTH

α-Chymotrypsin = α-Chymotrypsin (Bos taurus, UniProt P00766); assay: α-chymotrypsin inhibition (kon and Ki*); type: biochemical; conditions: for pKi: Ki* = koff/kon
Description: Measurement of the inhibition constant, Ki, of a HLE-inhibitor complex has been described for "truly reversible inhibition constants" usually concerning competitive inhibitors. [Cha, Biochem. Pharmacol., 24, 2177-2185 (1975)]. […] Thus, instead of measuring a Ki, a Ki * is calculated which is defined as the ratio of the koff /kon, the rate of reactivation of the enzyme to the rate of inactivation of the enzyme. The values of koff and kon are measured and Ki * is then calculated. The rate of inactivation, kon, of enzymatic activity was determined for the compounds tested by measuring the enzyme activity of an aliquot of the respective enzyme as a function of time after addition of the test compound. […] The rate of inactivation is then equal to [formula] where [I] is the concentration of the inhibiting compound. The reactivation constant, koff, is similarly determined and the inhibition constant, Ki *, is then calculated as Ki *=koff /kon The values obtained for kon and Ki * for specific substituted saccharin derivatives are shown in TABLE F, the compounds being identified by the Example numbers above where their preparations are described.

[1] = read-out: α-Chymotrypsin 10^-3 × kon

Row | Structure (SMILES) | pKi (human leukocyte elastase; read-out: Elastase Ki *) | kon (human leukocyte elastase) [M⁻¹ s⁻¹] | pKi (α-Chymotrypsin) | kon (α-Chymotrypsin; [1]) [M⁻¹ s⁻¹] | kon (α-Chymotrypsin; rate of inactivation of enzyme, value is 10^-3 × kon) [M⁻¹ s⁻¹] | pKi (human leukocyte elastase; human leukocyte elastase, read-out: Ki * values, elastase inhibition (Examples 41-57))
1 | CC(=O)OCN1C(=O)c2c(C)cccc2S1(=O)=O [Example 1, 2-acetoxymethyl-4-methylsaccharin] | 6.99 | 630 | 6.04 | 1200 |  | 
2 | CC(=O)OCN1C(=O)c2c(Cl)cccc2S1(=O)=O [Example 2, 2-acetoxymethyl-4-chlorosaccharin] | 7.35 | 4900 | 7.29 | 2900 |  | 
3 | O=C1c2c(Cl)cccc2S(=O)(=O)N1CCl [Example 3, 2-chloromethyl-4-chlorosaccharin] | 9.30 | 450000 | 7.59 | 5800 |  | 
4 | O=C1c2c(Cl)cccc2S(=O)(=O)N1Cn1nnn(-c2ccccc2)c1=S [Example 5, 4-chloro-2-(4-phenyl-5-thioxotetrazolin-1-ylmethyl)saccharin] | 8.22 | 44000 | 7.60 | 6000 |  | 
5 | CC(=O)Nc1cccc(-n2nnnc2SCN2C(=O)c3ccccc3S2(=O)=O)c1 [Example 6, 2-[1-(3-acetamidophenyl)-1H-tetrazol-5-ylthiomethyl]saccharin] | 7.82 | 5500 | 6.52 | 3700 |  | 
6 | Cn1nnnc1SCN1C(=O)c2ccccc2S1(=O)=O [Example 8, 2-(1-methyl-1H-tetrazol-5-ylthiomethyl)saccharin] |  | 1000 | 6.28 |  | 2100 | 
7 | O=C1c2ccccc2S(=O)(=O)N1C[S+]([O-])c1nnnn1-c1ccccc1 (centres unmarked) [Example 10, 2-(1-phenyl-1H-tetrazol-5-ylsulfinylmethyl)saccharin] | 7.96 | 7000 | 6.80 | 7000 |  | 
8 | O=C1c2ccccc2S(=O)(=O)N1CS(=O)(=O)c1ccccc1 [Example 12, 2-(phenylsulfonylmethyl)saccharin] | 7.09 | 970 | 6.00 | 1100 |  | 
9 | O=C1c2ccccc2S(=O)(=O)N1C[S+]([O-])c1ncccn1 (centres unmarked) [Example 13, 2-(2-pyrimidylsulfinylmethyl)saccharin] | 6.55 | 300 | 6.37 | 2600 |  | 
10 | O=C1c2ccccc2S(=O)(=O)N1CS(=O)(=O)c1ncccn1 [Example 14, 2-(2-pyrimidylsulfonylmethyl)saccharin] | 6.86 | 600 | 6.41 | 2800 |  | 
11 | O=C1c2c(-c3ccccc3)cccc2S(=O)(=O)N1CCl [Example 18, 2-chloromethyl-4-phenylsaccharin] | 7.00 | 1000 | 6.21 | 210 |  | 
12 | O=C(O)Cn1nnnc1SCN1C(=O)c2ccccc2S1(=O)=O [Example 34, 2-[1-(2-carboxymethyl)-1H-tetrazol-5-ylthiomethyl]saccharin] | 6.59 | 400 |  |  |  | 
13 | O=C(O)CCC(=O)Nc1cccc(-n2nnnc2SCN2C(=O)c3ccccc3S2(=O)=O)c1 [Example 35, 2-[1-(3-succinoylaminophenyl)-1H-tetrazol-5-ylthiomethyl]saccharin] | 7.66 | 3600 |  |  |  | 
14 | O=C1c2ccccc2S(=O)(=O)N1/C=C/CSc1nnnn1-c1ccccc1 [Example 38, trans-2-[3-(1-phenyl-1H-tetrazol-5-ylthio)-1-propenyl]saccharin] | 8.70 | 43000 |  |  |  | 
15 | CC(C)c1cccc2c1C(=O)N(CN1C(=O)CNS1(=O)=O)S2(=O)=O [Example 42D] |  |  |  |  |  | 6.00
